Measurements reported in PubChem BioAssay (NCI).
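Five concentrations, 48 hours, 96-well plates. The concentration for full growth arrest is given as TGI.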

Assays:
Test in all cases: NCI anticancer screen, dose series, 48 h
CCRF-CEM leukemia = tested on: CCRF-CEM leukemia
SK-MEL-5 melanoma = tested on: SK-MEL-5 melanoma
SR leukemia = tested on: SR leukemia
SN12C renal = tested on: SN12C renal
SF-295 CNS = tested on: SF-295 CNS
MOLT-4 leukemia = tested on: MOLT-4 leukemia
SNB-75 CNS = tested on: SNB-75 CNS
SK-MEL-28 melanoma = tested on: SK-MEL-28 melanoma
NCI-H23 lung = tested on: NCI-H23 lung
M14 melanoma = tested on: M14 melanoma
IGROV1 ovarian = tested on: IGROV1 ovarian
T-47D breast = tested on: T-47D breast
HCC-2998 colon = tested on: HCC-2998 colon
HCT-15 colon = tested on: HCT-15 colon
SNB-19 CNS = tested on: SNB-19 CNS
ACHN renal = tested on: ACHN renal
OVCAR-8 ovarian = tested on: OVCAR-8 ovarian
MCF7 breast = tested on: MCF7 breast
LOX IMVI melanoma = tested on: LOX IMVI melanoma
OVCAR-5 ovarian = tested on: OVCAR-5 ovarian
MDA-MB-435 = tested on: MDA-MB-435
RPMI-8226 leukemia = tested on: RPMI-8226 leukemia
A549 NSCLC = tested on: A549 NSCLC
EKVX NSCLC = tested on: EKVX NSCLC
NCI/ADR-RES ovarian = tested on: NCI/ADR-RES ovarian
MDA-N = tested on: MDA-N
CAKI-1 renal = tested on: CAKI-1 renal
HOP-92 NSCLC = tested on: HOP-92 NSCLC
SF-268 CNS = tested on: SF-268 CNS
HCT-116 colon = tested on: HCT-116 colon
TK-10 renal = tested on: TK-10 renal
UACC-62 melanoma = tested on: UACC-62 melanoma
SW-620 colon = tested on: SW-620 colon
SK-MEL-2 melanoma = tested on: SK-MEL-2 melanoma
K-562 leukemia = tested on: K-562 leukemia
OVCAR-3 ovarian = tested on: OVCAR-3 ovarian
COLO 205 colon = tested on: COLO 205 colon
DU-145 prostate = tested on: DU-145 prostate
NCI-H522 lung = tested on: NCI-H522 lung
UO-31 renal = tested on: UO-31 renal
786-0 renal = tested on: 786-0 renal
PC-3 prostate = tested on: PC-3 prostate
KM12 colon = tested on: KM12 colon
HS 578T breast = tested on: HS 578T breast
NCI-H460 lung = tested on: NCI-H460 lung
UACC-257 melanoma = tested on: UACC-257 melanoma
SF-539 CNS = tested on: SF-539 CNS
MDA-MB-231 breast = tested on: MDA-MB-231 breast
NCI-H226 lung = tested on: NCI-H226 lung
RXF 393 renal = tested on: RXF 393 renal
MALME-3M melanoma = tested on: MALME-3M melanoma
HOP-62 NSCLC = tested on: HOP-62 NSCLC
A498 renal = tested on: A498 renal
HL-60(TB) leukemia = tested on: HL-60(TB) leukemia
BT-549 breast = tested on: BT-549 breast
HT29 colon = tested on: HT29 colon
OVCAR-4 ovarian = tested on: OVCAR-4 ovarian
U251 CNS = tested on: U251 CNS

COC(=O)c1c[nH]c(=O)[nH]c1=O
TGI (CCRF-CEM leukemia): > 100 µM
TGI (SK-MEL-5 melanoma): > 100 µM
TGI (SR leukemia): > 100 µM
TGI (SN12C renal): > 100 µM
TGI (SF-295 CNS): > 100 µM
TGI (MOLT-4 leukemia): > 100 µM
TGI (SNB-75 CNS): > 100 µM
TGI (SK-MEL-28 melanoma): > 100 µM
TGI (NCI-H23 lung): > 100 µM
TGI (M14 melanoma): > 100 µM
TGI (IGROV1 ovarian): > 100 µM
TGI (T-47D breast): > 100 µM
TGI (HCC-2998 colon): > 100 µM
TGI (HCT-15 colon): > 100 µM
TGI (SNB-19 CNS): > 100 µM
TGI (ACHN renal): > 100 µM
TGI (OVCAR-8 ovarian): > 100 µM
TGI (MCF7 breast): > 100 µM
TGI (LOX IMVI melanoma): > 100 µM
TGI (OVCAR-5 ovarian): > 100 µM
TGI (MDA-MB-435): > 100 µM
TGI (RPMI-8226 leukemia): > 100 µM
TGI (A549 NSCLC): > 100 µM
TGI (EKVX NSCLC): > 100 µM
TGI (NCI/ADR-RES ovarian): > 100 µM
TGI (MDA-N): > 100 µM
TGI (CAKI-1 renal): > 100 µM
TGI (HOP-92 NSCLC): > 100 µM
TGI (SF-268 CNS): > 100 µM
TGI (HCT-116 colon): > 100 µM
TGI (TK-10 renal): > 100 µM
TGI (UACC-62 melanoma): > 100 µM
TGI (SW-620 colon): > 100 µM
TGI (SK-MEL-2 melanoma): > 100 µM
TGI (K-562 leukemia): > 100 µM
TGI (OVCAR-3 ovarian): > 100 µM
TGI (COLO 205 colon): > 100 µM
TGI (DU-145 prostate): > 100 µM
TGI (NCI-H522 lung): > 100 µM
TGI (UO-31 renal): > 100 µM
TGI (786-0 renal): > 100 µM
TGI (PC-3 prostate): > 100 µM
TGI (KM12 colon): > 100 µM
TGI (HS 578T breast): > 100 µM
TGI (NCI-H460 lung): > 100 µM
TGI (UACC-257 melanoma): > 100 µM
TGI (SF-539 CNS): > 100 µM

CCN(CC)CCO/N=C1\CC[C@H]2[C@@H]3CC=C4C[C@@H](O)CC[C@]4(C)[C@H]3CC[C@]12C
TGI (SK-MEL-5 melanoma): 25.4 µM
TGI (MDA-MB-231 breast): 41.2 µM
TGI (SR leukemia): 26.4 µM
TGI (NCI-H226 lung): 33.1 µM
TGI (RXF 393 renal): 34.1 µM
TGI (SN12C renal): > 100 µM
TGI (SF-295 CNS): 38.6 µM
TGI (MALME-3M melanoma): 29.7 µM
TGI (MOLT-4 leukemia): 40.4 µM
TGI (SNB-75 CNS): 91.1 µM
TGI (SK-MEL-28 melanoma): 31.1 µM
TGI (NCI-H23 lung): 33.4 µM
TGI (IGROV1 ovarian): > 100 µM
TGI (HCC-2998 colon): 31.7 µM
TGI (HOP-62 NSCLC): 35.2 µM
TGI (A498 renal): 35.9 µM
TGI (HCT-15 colon): 28.5 µM
TGI (SNB-19 CNS): 98.5 µM
TGI (HL-60(TB) leukemia): 44.5 µM
TGI (ACHN renal): > 100 µM
TGI (BT-549 breast): 44.4 µM
TGI (HT29 colon): 22.5 µM
TGI (OVCAR-8 ovarian): 64.6 µM
TGI (OVCAR-4 ovarian): 71.1 µM
TGI (MCF7 breast): 31.6 µM
TGI (LOX IMVI melanoma): 31.1 µM
TGI (OVCAR-5 ovarian): > 100 µM
TGI (MDA-MB-435): 31.9 µM
TGI (RPMI-8226 leukemia): 47.6 µM
TGI (EKVX NSCLC): > 100 µM
TGI (NCI/ADR-RES ovarian): > 100 µM
TGI (U251 CNS): 35.9 µM
TGI (MDA-N): 58.1 µM
TGI (CAKI-1 renal): 30 µM
TGI (SF-268 CNS): > 100 µM
TGI (HCT-116 colon): 30.2 µM
TGI (TK-10 renal): 96.1 µM
TGI (UACC-62 melanoma): 31.1 µM
TGI (SW-620 colon): 30.4 µM
TGI (SK-MEL-2 melanoma): 48.4 µM
TGI (K-562 leukemia): 30.7 µM
TGI (OVCAR-3 ovarian): 43.8 µM
TGI (COLO 205 colon): 26.1 µM
TGI (DU-145 prostate): 65.7 µM
TGI (NCI-H522 lung): 34 µM
TGI (UO-31 renal): 32.1 µM
TGI (786-0 renal): 31.5 µM
TGI (PC-3 prostate): 50.2 µM
TGI (KM12 colon): 38.5 µM
TGI (HS 578T breast): > 100 µM
TGI (NCI-H460 lung): 29.8 µM
TGI (UACC-257 melanoma): 30.4 µM
TGI (SF-539 CNS): 27.6 µM
